Literature values as cited in patent US7517900B2, “Pyrazole derivatives as cannabinoid receptor modulators” (Bristol-Myers Squibb Company, priority 2003, dated 2009).

Tests used:
[1] = chronic administration for two weeks
human subjects = conditions: 16 week trial period, Phase IIb

| SMILES | body weight [1] | body weight in human subjects (human subjects) |
| --- | --- | --- |
| Cc1c(C(=O)NN2CCCCC2)nn(-c2ccc(Cl)cc2Cl)c1-c1ccc(I)cc1 [AM-251] | substantial body weight reduction | – |
| Cc1c(C(=O)NN2CCCCC2)nn(-c2ccc(Cl)cc2Cl)c1-c1ccc(Cl)cc1 [SR-141716] | – | dose-dependently reduced body weight |
